Legend:
Assay type in all cases: cell-based, human
HCT-116 cells = experiment: Inhibition test for sphere-forming ability of cancer cells (Test Example 1), HCT-116; conditions: for IC50: concentration for 50% inhibition of cell proliferation, read-out: IC50 (μmol/L) HCT-116 (Sphere IC50 value); for inhibitory effect on the sphere-forming ability of cancer cells: Test Example 1, summary in words, cell line not given (HCT-116, HT-29, FaDu tested)
In short: (§1)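 First, 350-800 cells/well are plated on ultra-low-attachment surfaces in serum-free DMEM/F12 supplemented with B27, 20 ng/mL EGF, 10 ng/mL bFGF and insulin. Next, test compound is added (final DMSO 0.1%). After 4 days, viable cells are quantified by CellTiter-Glo and Sphere IC50 is calculated.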

HT-29 cells = experiment: Inhibition test for sphere-forming ability of cancer cells (Test Example 1), HT-29; conditions: for (100%-inhibition rate of cell proliferation) at 1 μmol/L, HT-29: value with %; for IC50: concentration for 50% inhibition of cell proliferation, read-out: IC50 (μmol/L) HT-29 (Sphere IC50 value)
In short: as §1

FaDu cells = experiment: Inhibition test for sphere-forming ability of cancer cells (Test Example 1), FaDu; conditions: for (100%-inhibition rate of cell proliferation) at 1 μmol/L, FaDu: value with %; for IC50: concentration for 50% inhibition of cell proliferation, read-out: IC50 (μmol/L) FaDu (Sphere IC50 value)
In short: as §1

[1] = HCT-116 cells, 1 μmol/L, value with %
[2] = Homo sapiens, read-out: (100%-inhibition rate of cell proliferation) at 1 μmol/L, 1 μmol/L, value with %

Structure (SMILES) | (100%-inhibition rate of cell proliferation) at 1 μmol/L, HCT-116 (HCT-116 cells; [1]) | (100%-inhibition rate of cell proliferation) at 1 μmol/L, HT-29 (HT-29 cells) | (100%-inhibition rate of cell proliferation) at 1 μmol/L, FaDu (FaDu cells) | IC50 (HCT-116 cells; HCT-116 cells) | IC50 (HT-29 cells) | IC50 (FaDu cells) | also measured
CCCCOc1ccc(C(=O)Nc2cn(Cc3cccc(Cl)c3)cn2)cn1 [Example 135] | 31.8% | 28.0% | 25.0% |  |  |  | 
CCCOc1ccc(C(=O)Nc2cn(Cc3cccc(Cl)c3)cn2)cn1 [Example 136] | 44.2% | 71.8% | 75.2% |  |  |  | 
CC(C)Oc1ccc(C(=O)Nc2cn(Cc3cccc(Cl)c3)cn2)cc1 [Example 140] |  |  |  |  |  |  | viability at 1 µM (HCT-116 cells; Homo sapiens, read-out: (100%-inhibition rate of cell proliferation) at 1 μmol/L, HCT-116 cells, 1 μmol/L, value with %): 31.4%; viability at 1 µM (HT-29 cells; [2]): 83%; viability at 1 µM (FaDu cells; [2]): 81.8%
COc1ccc(Cn2cnc(NC(=O)c3ccc(OC)c(OC)c3)c2)cc1 [Example 164] | 37.4% | 89.0% | 92.3% |  |  |  | 
COc1ccc(C(=O)Nc2cn(Cc3cccc(C(F)(F)F)c3)cn2)cc1OC [Example 165] | 31.9% | 28.0% | 24.1% |  |  |  | 
COc1ccc(C(=O)Nc2cn(Cc3cccc(OC(F)(F)F)c3)cn2)cc1OC [Example 166] | 36.8% | 33.0% | 23.8% |  |  |  | 
COc1ccc(C(=O)Nc2cn(Cc3c(F)ccc(C)c3F)cn2)cc1OC [Example 167] | 30.5% | 15.6% | 59.3% |  |  |  | 
COc1ccc(C(=O)Nc2cn(Cc3ccc(C(C)C)cc3)cn2)cc1OC [Example 168] | 32.1% | 8.6% | 32.3% |  |  |  | 
COc1ccc(C(=O)Nc2cn(Cc3cccc(OCc4ccccc4)c3)cn2)cc1OC [Example 169] | 50.9% | 35.4% | 68.6% |  |  |  | 
COc1ccc(C(=O)Nc2cn(Cc3cc(Cl)nc(Cl)c3)cn2)cc1OC [Example 170] | 33.8% | 24.9% | 27.1% |  |  |  | 
COc1ccc(C(=O)Nc2cn(Cc3ccc(C(F)(F)F)o3)cn2)cc1OC [Example 171] | 36.4% | 33.8% | 29.6% |  |  |  | 
COc1ccc(C(=O)Nc2cn(Cc3ccc4c(c3)C(C)(C)CCC4(C)C)cn2)cc1OC [Example 172] | 34.3% | 16.6% | 42.3% |  |  |  | 
COc1ccc(C(=O)Nc2cn(Cc3ccc(Cl)s3)cn2)cc1OC [Example 173] | 29.5% | 21.6% | 21.4% |  |  |  | 
O=C(Nc1cn(Cc2cccc(Cl)c2)cn1)c1ccc2nccn2c1 [Example 176] |  |  |  | 7.16 µmol/L | 3.43 µmol/L | 5.16 µmol/L | 
O=C(Nc1cn(Cc2cccc(C(F)(F)F)c2)cn1)c1ccc(CC(F)F)nc1 [Example 187] |  |  |  | 7.31 µmol/L | 3.74 µmol/L | 8.64 µmol/L | 
O=C(Nc1cn(Cc2cccc(C(F)(F)F)c2)cn1)c1ccc2cccnc2c1 [Example 195] |  |  |  | > 10 µmol/L | 5.55 µmol/L | > 10 µmol/L | 
O=C(Nc1cn(Cc2cccc(Cl)c2)cn1)c1ccc(-n2cccn2)nc1 [Example 196] |  |  |  | 0.76 µmol/L | 3.78 µmol/L | 0.89 µmol/L | 
O=C(Nc1cn(Cc2cccc(Cl)c2)cn1)c1ccc(OCc2ccccc2)cc1 [Example 197] | 44.3% | 39.0% | 28.9% |  |  |  | 
Cc1ccc(C(=O)Nc2cn(Cc3cccc(Cl)c3)cn2)cn1 [Example 198] | 55.3% | 99.8% | 64.5% |  |  |  | 

Structure (SMILES) | (100%-inhibition rate of cell proliferation) at 1 μmol/L, HCT-116 (HCT-116 cells; [1]) | (100%-inhibition rate of cell proliferation) at 1 μmol/L, HT-29 (HT-29 cells) | (100%-inhibition rate of cell proliferation) at 1 μmol/L, FaDu (FaDu cells) | IC50 (HCT-116 cells; HCT-116 cells) | IC50 (HT-29 cells) | IC50 (FaDu cells) | also measured
O=C(Nc1cn(Cc2cccc(C(F)(F)F)c2)cn1)c1ccc(=O)[nH]c1 [Example 199] | 39.8% | 31.2% | 25.9% |  |  |  | 
COc1ccc(C(=O)Nc2cn(Cc3cccc(Cl)c3)cn2)cn1 [Example 202] |  |  |  | 0.96 µmol/L | 5.68 µmol/L | 6.87 µmol/L | 
CCOc1ccc(C(=O)Nc2cn(Cc3cccc(Cl)c3)cn2)cn1 [Example 203] |  |  |  | 0.9 µmol/L | 0.71 µmol/L | 0.9 µmol/L | 
COCCCOc1ccc(C(=O)Nc2cn(Cc3cccc(Cl)c3)cn2)cn1 [Example 204] |  |  |  | 4.56 µmol/L | 0.72 µmol/L | 0.86 µmol/L | 
CN(C)CCOc1ccc(C(=O)Nc2cn(Cc3cccc(Cl)c3)cn2)cn1 [Example 205] |  |  |  | > 10 µmol/L | 2.39 µmol/L | 6.39 µmol/L | 
O=C(Nc1cn(Cc2cccc(Cl)c2)cn1)c1ccc(OCc2ccccc2)nc1 [Example 206] |  |  |  | 0.69 µmol/L | 0.09 µmol/L | 0.09 µmol/L | inhibitory effect on the sphere-forming ability of cancer cells (HCT-116 cells): particularly potent inhibitory effect
CC(C)Oc1ccc(C(=O)Nc2cn(Cc3cccc(Cl)c3)cn2)cn1 [Example 207] |  |  |  | 0.83 µmol/L | 0.67 µmol/L | 0.89 µmol/L | 
O=C(Nc1cn(Cc2cccc(Cl)c2)cn1)c1ccc(OC2CCCC2)nc1 [Example 208] |  |  |  | > 10 µmol/L | 0.81 µmol/L | 5.33 µmol/L | 
COc1ccc(C(=O)Nc2cn(Cc3cccc(C(F)(F)F)c3)cn2)cn1 [Example 209] |  |  |  | 4.24 µmol/L | 4.95 µmol/L | 6.45 µmol/L | 
CCOc1ccc(C(=O)Nc2cn(Cc3cccc(C(F)(F)F)c3)cn2)cn1 [Example 210] |  |  |  | 0.81 µmol/L | 0.82 µmol/L | 0.79 µmol/L | 
COc1ccc(C(=O)Nc2cn(Cc3cccc(OC(F)(F)F)c3)cn2)cn1 [Example 212] |  |  |  | 0.78 µmol/L | 0.99 µmol/L | 0.84 µmol/L | 
CCOc1ccc(C(=O)Nc2cn(Cc3cccc(OC(F)(F)F)c3)cn2)cn1 [Example 213] |  |  |  | 0.81 µmol/L | 0.65 µmol/L | 0.79 µmol/L | 
O=C(Nc1cn(Cc2cccc(C(F)(F)F)c2)cn1)c1ccc(OCC(F)(F)F)nc1 [Example 214] |  |  |  | 5.31 µmol/L | 0.9 µmol/L | 3.52 µmol/L | 
CC(C)Oc1ccc(C(=O)Nc2cn(Cc3cccc(OC(F)(F)F)c3)cn2)cn1 [Example 215] |  |  |  | 0.88 µmol/L | 0.66 µmol/L | 0.85 µmol/L | 
COc1ccc(C(=O)Nc2cn(Cc3c(F)ccc(C)c3F)cn2)cn1 [Example 216] |  |  |  | 0.08 µmol/L | 0.07 µmol/L | 0.09 µmol/L | inhibitory effect on the sphere-forming ability of cancer cells (HCT-116 cells): particularly potent inhibitory effect
Cc1ccc(F)c(Cn2cnc(NC(=O)c3ccc(OC(C)C)nc3)c2)c1F [Example 217] |  |  |  | 0.22 µmol/L | 0.48 µmol/L | 0.75 µmol/L | 
COc1cc(C(=O)Nc2cn(Cc3cccc(Cl)c3)cn2)cnc1OC [Example 218] |  |  |  | 0.58 µmol/L | 0.06 µmol/L | 0.08 µmol/L | inhibitory effect on the sphere-forming ability of cancer cells (HCT-116 cells): particularly potent inhibitory effect
O=C(Nc1cn(Cc2cccc(Cl)c2)cn1)c1ccc(OCC(F)(F)F)nc1 [Example 219] |  |  |  | 0.92 µmol/L | 8.34 µmol/L | 9.4 µmol/L | 
CCOc1ncc(C(=O)Nc2cn(Cc3cccc(Cl)c3)cn2)cc1Cl [Example 220] |  |  |  | > 10 µmol/L | 4.25 µmol/L | 0.77 µmol/L | 

Reference: patent US10898469B2, “Imidazolylamide derivative” (Sumitomo Dainippon Pharma Co., Ltd., priority 2016, dated 2021)
